# Data taken from patent US5811391A, “Cyclic CS-1 peptidomimetics, compositions and methods of using same” (Cytel Corporation, priority 1995, dated 1998).
# Positions of bridges follow the written chain, without caps; N, C: chain ends. Residues, ends and D or L forms follow the SMILES beside them.
# Molecular target: VLA-4 (Homo sapiens, UniProt P05556+P13612)
# Experiment: In vitro binding assay: 51Cr-labeled Jurkat cells to solid phase-bound CS-1 peptide (SEQ ID NO:5)
# Format: cell-based
# Parameters: inflammatory cells that contain the VLA-4 receptor [Jurkat cells; host or cells: Jurkat cells (human T lymphoblastic line)
# Settings: Jurkat cells, CS-1
# Experimental: Binding inhibition is measured here as a concentration of peptide that inhibits one-half the binding between a standard number of Jurkat cells and a standard amount of CS-1 peptide bound to the surface of a microtiter plate well. Those concentrations are conveniently expressed as IC50 values, smaller numbers indicating a lower concentration required to inhibit 50 percent binding and therefore greater potency. Further specifics of this assay are provided hereinafter.
# Jurkat cells (ATCC TIB 152), a human T lymphoblastic line, labeled with ^51 chromium were used to assay in vitro binding inhibition provided by various peptides discussed herein.
# The plates were prepared as follows: The 25-mer CS-1 peptide (SEQ ID NO:5) dissolved at 0.5-1 μg/ml in a buffer of 0.1M NaHCO3 at pH 9.5 that also contained 10 μg/ml of bovine serum albumin (BSA) or a conjugate of the CS-1 peptide linked to ovalbumin (CS-1-OVA) dissolved at 1-2.5 μg/ml in the same buffer was used as the substrate. Each well of the microtiter plates was coated with 50 μl of substrate or buffer alone for controls. The wells were permitted to dry out completely and were then rinsed twice with PBS at pH 7.4. Non-specific binding sites of each well were then blocked using 200 μl per well of RPMI/1 percent BSA for two hours at room temperature. Both solid phase-affixed substrates provided similar results.
# Jurkat cells (3-5×10^6 cells) were placed into a 15 ml FALCON™ round-bottom tube with a cap. The tube was centrifuged, and the extra medium was then removed.
# Two hundred microliters of a ^51 Cr labeling solution were added to the centrifuged cells and maintained in contact with the cells for 90-120 minutes in a warm room. This procedure typically provides about 50,000-100,000 cpm/well with about 80-100 percent cell viability. Longer contact times provide a greater amount of labeling but lower cell viability.
# The labeled cells were washed with (i) complete medium, (ii) 1mM EDTA/PBS and then (iii) RPM1/1 percent BSA free of serum components. The cells were centrifuged after each washing. The cells were finally resuspended in serum-free RPMI/1 percent BSA at a concentration of 1×10^6 viable cells/ml, which provides a concentration that is diluted by one-half in the assay.
# Cyclic inhibitor peptides were prepared as stock solutions at 20 mg/ml in DMSO in 1.5 ml cryogenic screwcap vials, and were stored at -70° C. Using FLOW™ round-bottom or V-bottom microtiter plates, the inhibitor peptides were prepared at twice the assay concentration in RPMI/1 percent BSA at 60 μl/well.
# Four initial dilutions were typically used.
# The ^51 Cr-labeled cells (1×10^6 cells at 60 μl/well) were then admixed with the diluted cyclic peptide solutions. The admixtures were maintained at room temperature (about 22° C.) for 30 minutes.
# One hundred microliters of each inhibitor peptide/cell admixture were transferred to the substrate-coated wells. This was done in triplicate for each dilution. The resulting plates were incubated for 30 minutes at 37° C. and then washed gently three times with RPMI/1 percent BSA at 200 μl/well. Binding was observed microscopically, particularly after the second wash.
# The bound cells were then lysed by the addition of a 0.5 percent solution of sodium dodecylsulfate in water at 100 μl/well. The resulting solutions were then processed for counting and calculation of IC50 values following usual procedures. Appropriate positive and negative controls were used with each plate so that the results of separate assays could be normalized and compared.
# The potency data of Table 1 and Table 2 are so normalized. The absolute IC50 value for the peptide of SEQ ID NO:7 is 0.3 μM.
# [1] = Table 1, normalized IC50 potency relative to standard peptide SEQ ID NO:6 (=1)
# [2] = Table 2, normalized IC50 potency relative to standard peptide SEQ ID NO:6
# VLA-4, sequence (P13612 34-1032): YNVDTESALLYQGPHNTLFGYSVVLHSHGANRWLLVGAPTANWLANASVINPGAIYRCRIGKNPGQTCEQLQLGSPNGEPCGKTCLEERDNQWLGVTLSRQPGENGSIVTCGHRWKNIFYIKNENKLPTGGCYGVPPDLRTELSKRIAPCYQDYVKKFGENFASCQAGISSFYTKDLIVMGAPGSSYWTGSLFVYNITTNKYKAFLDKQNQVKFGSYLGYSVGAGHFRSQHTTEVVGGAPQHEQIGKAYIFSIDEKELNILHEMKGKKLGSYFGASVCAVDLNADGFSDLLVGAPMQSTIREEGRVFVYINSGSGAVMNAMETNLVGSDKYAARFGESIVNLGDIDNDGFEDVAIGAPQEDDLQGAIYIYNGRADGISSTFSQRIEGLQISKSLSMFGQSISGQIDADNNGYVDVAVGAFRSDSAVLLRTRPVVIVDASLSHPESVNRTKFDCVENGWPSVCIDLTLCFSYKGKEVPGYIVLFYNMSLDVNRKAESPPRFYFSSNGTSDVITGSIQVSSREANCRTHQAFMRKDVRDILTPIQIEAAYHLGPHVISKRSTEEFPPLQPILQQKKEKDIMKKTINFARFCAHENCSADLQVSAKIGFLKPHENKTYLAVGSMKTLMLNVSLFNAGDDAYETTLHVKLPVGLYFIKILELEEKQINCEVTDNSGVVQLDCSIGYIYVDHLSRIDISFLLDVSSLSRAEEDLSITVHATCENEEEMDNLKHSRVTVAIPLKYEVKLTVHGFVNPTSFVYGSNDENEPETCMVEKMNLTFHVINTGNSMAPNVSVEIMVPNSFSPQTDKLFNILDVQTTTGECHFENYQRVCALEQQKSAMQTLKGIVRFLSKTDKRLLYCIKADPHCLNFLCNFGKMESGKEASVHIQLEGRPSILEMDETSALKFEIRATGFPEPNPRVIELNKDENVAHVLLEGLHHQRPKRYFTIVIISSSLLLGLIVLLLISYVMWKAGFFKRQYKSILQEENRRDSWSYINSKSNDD
# VLA-4, sequence (P05556 21-798): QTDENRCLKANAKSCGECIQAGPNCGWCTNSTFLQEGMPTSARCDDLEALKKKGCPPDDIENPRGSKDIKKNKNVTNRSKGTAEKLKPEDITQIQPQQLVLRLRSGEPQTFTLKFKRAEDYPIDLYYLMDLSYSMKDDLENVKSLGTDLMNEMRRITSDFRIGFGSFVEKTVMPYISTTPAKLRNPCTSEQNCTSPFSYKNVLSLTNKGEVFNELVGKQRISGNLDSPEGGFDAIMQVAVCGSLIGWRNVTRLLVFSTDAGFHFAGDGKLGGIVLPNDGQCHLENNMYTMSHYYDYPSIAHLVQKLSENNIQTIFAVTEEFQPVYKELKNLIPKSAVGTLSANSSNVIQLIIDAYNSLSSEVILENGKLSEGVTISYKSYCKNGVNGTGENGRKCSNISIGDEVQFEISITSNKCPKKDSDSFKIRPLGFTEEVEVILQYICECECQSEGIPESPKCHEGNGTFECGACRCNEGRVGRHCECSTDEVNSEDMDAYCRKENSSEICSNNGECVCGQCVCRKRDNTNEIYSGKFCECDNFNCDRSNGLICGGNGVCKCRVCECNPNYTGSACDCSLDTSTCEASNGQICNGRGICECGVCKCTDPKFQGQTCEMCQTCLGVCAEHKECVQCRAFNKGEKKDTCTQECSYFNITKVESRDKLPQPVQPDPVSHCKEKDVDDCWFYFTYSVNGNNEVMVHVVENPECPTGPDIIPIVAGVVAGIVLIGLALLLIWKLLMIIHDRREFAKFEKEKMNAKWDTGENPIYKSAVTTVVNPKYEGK
Compound,Relative Potency [1],Relative Potency [2]
"CC(=O)N[C@@H](Cc1ccccc1)C(=O)N[C@H]1CSSC[C@@H](C(N)=O)NC(=O)[C@H](Cc2ccccc2)NC(=O)[C@H](CC(=O)O)NC1=O [SEQ ID NO:17, AcFCDFC-NH2] (Ac-FCDFC-NH2; disulfide 2-5)",52,
"CC(=O)N[C@@H](Cc1ccccc1)C(=O)N[C@@H](CS)C(=O)N[C@@H](CC(=O)O)C(=O)N[C@@H](Cc1ccccc1)C(=O)N[C@@H](CS)C(N)=O [SEQ ID NO:18, AcFCDFC-NH2] (Ac-FCDFC-NH2)",41,
"CC(C)C[C@@H]1NC(=O)[C@H](Cc2ccccc2)NC(=O)[C@H](CCC(=O)O)NC(=O)[C@@H]2CCCN2C(=O)[C@@H](N)CSSC[C@@H](C(N)=O)NC(=O)[C@H](CO)NC(=O)[C@@H]2CCCN2C(=O)[C@H](Cc2ccccc2)NC(=O)[C@H](CC(=O)O)NC1=O [SEQ ID NO:19, CPEFLDFPSC-NH2] (H-CPEFLDFPSC-NH2; disulfide 1-10)",6,
"CC(C)C[C@@H]1NC(=O)[C@H](Cc2ccccc2)NC(=O)[C@@H](N)CSSC[C@@H](C(N)=O)NC(=O)[C@H](C(C)C)NC(=O)[C@H]([C@@H](C)O)NC(=O)[C@H](CO)NC(=O)[C@@H]2CCCN2C(=O)[C@H](Cc2ccccc2)NC(=O)[C@H](CC(=O)O)NC1=O [SEQ ID NO:21, CFLDFPSTVC-NH2] (H-CFLDFPSTVC-NH2; disulfide 1-10)",19,
"CC(C)C[C@@H]1NC(=O)[C@H](Cc2ccccc2)NC(=O)[C@H](CCC(=O)O)NC(=O)[C@@H](N)CSSC[C@@H](C(N)=O)NC(=O)[C@H]([C@@H](C)O)NC(=O)[C@H](CO)NC(=O)[C@@H]2CCCN2C(=O)[C@H](Cc2ccccc2)NC(=O)[C@H](CC(=O)O)NC1=O [SEQ ID NO:22, CEFLDFPSTC-NH2] (H-CEFLDFPSTC-NH2; disulfide 1-10)",9,
"CC(C)C[C@@H]1NC(=O)[C@H](Cc2ccccc2)NC(=O)[C@H](CCC(=O)O)NC(=O)[C@@H](N)CSSC[C@@H](C(N)=O)NC(=O)[C@H](CO)NC(=O)[C@@H]2CCCN2C(=O)[C@H](Cc2ccccc2)NC(=O)[C@H](CC(=O)O)NC1=O [SEQ ID NO:24, CEFLDFPSC-NH2] (H-CEFLDFPSC-NH2; disulfide 1-9)",6,
"CC(=O)N[C@@H](Cc1ccccc1)C(=O)N[C@H]1CSSC[C@@H](C(=O)N2CCC[C@H]2C(N)=O)NC(=O)[C@H](CC(=O)O)NC1=O [SEQ ID NO:29, AcFCDCP-NH2] (Ac-FCDCP-NH2; disulfide 2-4)",1,
"CC(C)C[C@@H]1NC(=O)[C@H](CCC(=O)O)NC(=O)[C@@H]2CCCN2C(=O)[C@@H](N)CSSC[C@@H](C(N)=O)NC(=O)[C@H](CO)NC(=O)[C@@H]2CCCN2C(=O)[C@H](Cc2ccccc2)NC(=O)[C@H](CC(=O)O)NC1=O [SEQ ID NO:33, CPELDFPSC-NH2] (H-CPELDFPSC-NH2; disulfide 1-9)",31,
CC(C)C[C@@H]1NC(=O)[C@H](Cc2ccccc2)NC(=O)[C@@H](N)CSSC[C@@H](C(N)=O)NC(=O)[C@@H]2CCCN2C(=O)[C@H](Cc2ccccc2)NC(=O)[C@H](CC(=O)O)NC1=O [drawing 7] (H-CFLDFPC-NH2; disulfide 1-7),,254
CC(=O)N[C@H]1CSSC[C@@H](C(N)=O)NC(=O)[C@@H]2CCCN2C(=O)[C@H](Cc2ccccc2)NC(=O)[C@H](CC(=O)O)NC(=O)[C@H](CC(C)C)NC(=O)[C@H](Cc2ccccc2)NC1=O [drawing 10] (Ac-CFLDFPC-NH2; disulfide 1-7),,135
NC(=O)[C@@H]1CSSC[C@H](NC(=O)[C@@H](N)Cc2ccccc2)C(=O)N[C@@H](CC(=O)O)C(=O)N[C@@H](Cc2ccccc2)C(=O)N2CCC[C@H]2C(=O)N1 [drawing 11] (H-FCDFPC-NH2; disulfide 2-6),,131
CC(C)C[C@@H]1NC(=O)[C@H](Cc2ccccc2)NC(=O)[C@@H](N)CSSC[C@@H](C(N)=O)NC(=O)[C@H](CO)NC(=O)[C@@H]2CCCN2C(=O)[C@H](Cc2ccccc2)NC(=O)[C@H](CC(=O)O)NC1=O [drawing 12] (H-CFLDFPSC-NH2; disulfide 1-8),,122
CC(C)C[C@@H]1NC(=O)[C@H](Cc2ccccc2)NC(=O)[C@H](CCC(=O)O)NC(=O)[C@@H]2CCCN2C(=O)[C@@H](N)CSSC[C@@H](C(N)=O)NC(=O)[C@@H]2CCCN2C(=O)[C@H](Cc2ccccc2)NC(=O)[C@H](CC(=O)O)NC1=O [drawing 23] (H-CPEFLDFPC-NH2; disulfide 1-9),,31.3
CC(C)C[C@@H]1NC(=O)[C@H](Cc2ccccc2)NC(=O)[C@H](CCC(=O)O)NC(=O)[C@@H]2CCCN2C(=O)[C@@H](N)CSSC[C@@H](C(N)=O)NC(=O)[C@H](CO)NC(=O)[C@@H]2CCCN2C(=O)[C@H](Cc2ccccc2)NC(=O)[C@H](CC(=O)O)NC1=O [drawing 35] (H-CPEFLDFPSC-NH2; disulfide 1-10),,6.26
NC(=O)[C@@H]1CSSC[C@H](NC(=O)[C@@H](N)Cc2ccccc2)C(=O)N[C@@H](CC(=O)O)C(=O)N[C@@H](Cc2ccccc2)C(=O)N1 [drawing 39] (H-FCDFC-NH2; disulfide 2-5),,2.52

# Results, then the compound that gave them:
Relative Potency [1],Relative Potency [2],Compound
19,,"CC(C)C[C@@H]1NC(=O)[C@H](Cc2ccccc2)NC(=O)[C@H](CCC(=O)O)NC(=O)[C@@H](N)CSSC[C@@H](C(N)=O)NC(=O)[C@@H]2CCCN2C(=O)[C@H](Cc2ccccc2)NC(=O)[C@H](CC(=O)O)NC1=O [SEQ ID NO:20, CEFLDFPC-NH2] (H-CEFLDFPC-NH2; disulfide 1-8)"
9,,"CC(C)C[C@@H]1NC(=O)[C@H](Cc2ccccc2)NC(=O)[C@H](CCC(=O)O)NC(=O)[C@@H]2CCCN2C(=O)CNC(=O)[C@@H](N)CSSC[C@@H](C(N)=O)NC(=O)[C@H](Cc2ccccc2)NC(=O)[C@H](CC(=O)O)NC1=O [SEQ ID NO:23, CGPEFLDFC-NH2] (H-CGPEFLDFC-NH2; disulfide 1-9)"
3,,"NC(=O)[C@@H]1CSSC[C@H](NC(=O)[C@@H](N)Cc2ccccc2)C(=O)N[C@@H](CC(=O)O)C(=O)N[C@@H](Cc2ccccc2)C(=O)N1 [SEQ ID NO:25, FCDFC-NH2] (H-FCDFC-NH2; disulfide 2-5)"
1,,"CC(C)C[C@@H]1NC(=O)[C@@H](N)CSSC[C@@H](C(N)=O)NC(=O)[C@H](Cc2ccccc2)NC(=O)[C@H](CC(=O)O)NC1=O [SEQ ID NO:28, CLDFC -NH2] (H-CLDFC-NH2; disulfide 1-5)"
< 1,,"NC(=O)[C@@H]1CCCN1C(=O)[C@@H]1CSSC[C@H](NC(=O)[C@@H](N)Cc2ccccc2)C(=O)N[C@@H](CC(=O)O)C(=O)N1 [SEQ ID NO:30, FCDCP-NH2] (H-FCDCP-NH2; disulfide 2-4)"
,52.6,CC(=O)N[C@@H](Cc1ccccc1)C(=O)N[C@H]1CSSC[C@@H](C(N)=O)NC(=O)[C@H](Cc2ccccc2)NC(=O)[C@H](CC(=O)O)NC1=O [drawing 21] (Ac-FCDFC-NH2; disulfide 2-5)
,18.8,CC(C)C[C@@H]1NC(=O)[C@H](Cc2ccccc2)NC(=O)[C@H](CCC(=O)O)NC(=O)[C@@H](N)CSSC[C@@H](C(N)=O)NC(=O)[C@@H]2CCCN2C(=O)[C@H](Cc2ccccc2)NC(=O)[C@H](CC(=O)O)NC1=O [drawing 26] (H-CEFLDFPC-NH2; disulfide 1-8)
,9.39,CC(C)C[C@@H]1NC(=O)[C@H](Cc2ccccc2)NC(=O)[C@H](CCC(=O)O)NC(=O)[C@@H]2CCCN2C(=O)CNC(=O)[C@@H](N)CSSC[C@@H](C(N)=O)NC(=O)[C@H](Cc2ccccc2)NC(=O)[C@H](CC(=O)O)NC1=O [drawing 30] (H-CGPEFLDFC-NH2; disulfide 1-9)
,6.26,CC(C)C[C@@H]1NC(=O)[C@H](Cc2ccccc2)NC(=O)[C@H](CCC(=O)O)NC(=O)[C@@H](N)CSSC[C@@H](C(N)=O)NC(=O)[C@H](CO)NC(=O)[C@@H]2CCCN2C(=O)[C@H](Cc2ccccc2)NC(=O)[C@H](CC(=O)O)NC1=O [drawing 34] (H-CEFLDFPSC-NH2; disulfide 1-9)
